# Experimental data reported in patent US20260373266A1, “PROTEIN DEGRADERS AND USES THEREOF” (KYMERA THERAPEUTICS, INC., priority 2022, published 2026).
# Biological target: T1, DCAF1 WD40 domain (residues 1077-1390) (Homo sapiens, UniProt Q9Y4B6)
# T1 construct: DCAF1 WD40 domain (residues 1077-1390)
# Test: DCAF1 binding assay by SPR (Biacore 8K+), DCAF1-3 KD
# Settings: 25 °C, read-out: DCAF1-3 SPR (KD)
# T1 sequence (Q9Y4B6 1077-1390): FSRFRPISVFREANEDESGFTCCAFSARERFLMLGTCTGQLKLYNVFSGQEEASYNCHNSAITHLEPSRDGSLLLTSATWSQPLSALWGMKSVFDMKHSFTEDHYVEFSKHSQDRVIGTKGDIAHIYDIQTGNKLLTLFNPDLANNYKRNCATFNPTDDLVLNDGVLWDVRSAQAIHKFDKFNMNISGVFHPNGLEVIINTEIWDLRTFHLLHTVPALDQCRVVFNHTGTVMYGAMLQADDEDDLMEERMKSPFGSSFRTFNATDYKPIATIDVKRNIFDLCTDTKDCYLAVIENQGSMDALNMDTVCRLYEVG
row,Kd [µM],SMILES
1,10 to 100,Nc1cnc(N2CCCCC2)nc1N[C@@H]1CCCN(c2cccc(F)c2)C1 [I-1001]
2,< 10,Cc1c(F)ccc(F)c1-c1[nH]ncc1C(=O)N[C@@H](c1cccc(Cl)c1)[C@@H]1CCCS1(=O)=O [I-1002]
3,< 10,Cc1c(F)ccc(F)c1-c1c(C(=O)N[C@@H](CC(N)=O)c2cccc(Cl)c2)cn(C)c1C(=O)c1ccc(C#CCOC2CCNCC2)cc1 [I-1003]
4,< 10,Cc1c(F)ccc(F)c1-c1c(C(=O)N[C@@H](CC(=O)N2CC[C@H](O)C2)c2cccc(Cl)c2)cn(C)c1C#N [I-1004]
5,< 10,Cc1c(F)ccc(F)c1-c1c(C(=O)N[C@@H](CC(=O)N2CC[C@@H](O)C2)c2cccc(Cl)c2)cn(C)c1C#N [I-1005]
6,100 to 200,NC(=O)N1CC2(CCCN(c3cccc(F)c3)C2)Nc2cc(N3CCCCC3)ncc21 (centres unmarked) [I-1006]
7,< 10,OC[C@@H]1CC[C@H](Nc2cc(N3CCCCC3)ccn2)CN1c1cccc(F)c1 [I-1007]
8,10 to 100,OC[C@H]1CC[C@@H](Nc2cc(N3CCCCC3)ccn2)CN1c1cccc(F)c1 [I-1008]
9,10 to 100,NCc1cnc(N2CCCCC2)nc1N[C@@H]1CCCN(c2cccc(F)c2)C1 [I-1010]
10,10 to 100,OC[C@@H]1C[C@H](Nc2cc(N3CCCCC3)ccn2)CN(c2cccc(F)c2)C1 [I-1011]
11,10 to 100,OC[C@H]1C[C@H](Nc2cc(N3CCCCC3)ccn2)CN(c2cccc(F)c2)C1 [I-1012]
12,10 to 100,NCCNc1cnc(N2CCCCC2)nc1N[C@@H]1CCCN(c2cccc(F)c2)C1 [I-1014]
13,< 10,Cc1c(F)ccc(F)c1-c1c(C(=O)N[C@@H](CC(N)=O)c2cccc(Cl)c2)cn(C)c1C(=O)c1ccc(OCCOCCOCCOCCOCCOCCOCCN)cc1 [I-1015]
14,< 10,Cc1c(F)ccc(F)c1-c1c(C(=O)N[C@@H](CC(N)=O)c2cccc(Cl)c2)cn(C)c1C(=O)c1ccc(OCCOCCOCCOCCOCCN)cc1 [I-1017]
15,< 10,Cc1c(F)ccc(F)c1-c1c(C(=O)N[C@@H](CC(N)=O)c2cccc(Cl)c2)cn(C)c1C(=O)c1ccc(OCCOCCOCCOCCOCCOCCN)cc1 [I-1018]
16,10 to 100,NCC1CC[C@@H](Nc2cc(N3CCCCC3)ccn2)CN1c1cccc(F)c1 (some centres unmarked) [I-1019]
17,10 to 100,NCC(=O)N1CC2(CCCN(c3cccc(F)c3)C2)Nc2cc(N3CCCCC3)ncc21 (centres unmarked) [I-1020]

row,Kd [µM],SMILES
1,10 to 100,NC[C@H]1CC[C@H](Nc2cc(N3CCCCC3)ccn2)CN1c1cccc(F)c1 [I-1021]
2,10 to 100,NC[C@@H]1CC[C@H](Nc2cc(N3CCCCC3)ccn2)CN1c1cccc(F)c1 [I-1022]
3,10 to 100,NC[C@@H]1CC[C@@H](Nc2cc(N3CCCCC3)ccn2)CN1c1cccc(F)c1 [I-1023]
4,< 10,Cc1c(F)ccc(F)c1-c1c(C(=O)N[C@@H](CC(N)=O)c2cccc(Cl)c2)cn(C)c1C(=O)c1ccc(OCCOCCOCCOCCN)cc1 [I-1024]
5,10 to 100,NC(=O)[C@H]1CC[C@@H](Nc2cc(N3CCCCC3)ccn2)CN1c1cccc(F)c1 [I-1025]
6,10 to 100,NC(=O)[C@@H]1CC[C@H](Nc2cc(N3CCCCC3)ccn2)CN1c1cccc(F)c1 [I-1027]
7,< 10,Cc1c(F)ccc(F)c1-c1c(C(=O)N[C@@H](CC(N)=O)c2cccc(Cl)c2)cn(C)c1C(=O)c1ccc(O)cc1 [I-1030]
8,10 to 100,NC(=O)[C@@H]1C[C@H](Nc2cc(N3CCCCC3)ccn2)CN(c2cccc(F)c2)C1 [I-1031]
9,10 to 100,NC(=O)[C@H]1C[C@@H](Nc2cc(N3CCCCC3)ccn2)CN(c2cccc(F)c2)C1 [I-1032]
10,< 10,NC(=O)[C@@H]1C[C@@H](Nc2cc(N3CCCCC3)ccn2)CN(c2cccc(F)c2)C1 [I-1033]
11,< 10,Cc1c(F)ccc(F)c1-c1c(C(=O)N[C@@H](CC(N)=O)c2cccc(Cl)c2)cn(C)c1C(=O)c1ccc(OCCOCCOCCN)cc1 [I-1034]
12,10 to 100,NC(=O)OCc1cc(F)cc(N2CCC[C@@H]3[C@H]2CCN3c2cc(N3CC4CC(C4)C3)ccn2)c1 [I-1036]
13,< 10,Cc1c(F)ccc(F)c1-c1c(C(=O)N[C@@H](CC(N)=O)c2cccc(Cl)c2)cn(C)c1C(=O)c1ccc(CN2CCC(C=O)CC2)cc1 [I-1037]
14,10 to 100,NC[C@H]1C[C@H](Nc2cc(N3CCCCC3)ccn2)CN(c2cccc(F)c2)C1 [I-1039]
15,10 to 100,NC[C@@H]1C[C@@H](Nc2cc(N3CCCCC3)ccn2)CN(c2cccc(F)c2)C1 [I-1040]
16,10 to 100,NC[C@H]1C[C@@H](Nc2cc(N3CCCCC3)ccn2)CN(c2cccc(F)c2)C1 [I-1041]
17,10 to 100,NC[C@@H]1C[C@H](Nc2cc(N3CCCCC3)ccn2)CN(c2cccc(F)c2)C1 [I-1042]

# The remaining lines, values behind:
row,SMILES,Kd [µM]
1,O=c1cc(N2CCC[C@@H](Nc3cc(N4CCCCC4)ccn3)C2)cc[nH]1 [I-945],10 to 100
2,NC(=O)C[C@H](NC(=O)c1c[nH]c(C(=O)c2ccccc2)c1-c1c(F)cc(Cl)cc1F)c1cccc(Cl)c1 [I-946],< 10
3,NCCNCc1cc(N[C@@H]2CCCN(c3cccc(F)c3)C2)cc(N2CCCCC2)c1 [I-947],100 to 200
4,CC(=O)N1CCN(c2ccnc(N3CC[C@@H]4[C@H]3CCCN4c3cccc(F)c3)c2)CC1 [I-948],10 to 100
5,NC(=O)C[C@H](NC(=O)c1c[nH]c(C(=O)c2ccccc2)c1-c1c(F)c(F)cc(F)c1F)c1cccc(Cl)c1 [I-949],< 10
6,COCCOCCOCC[C@@H]1CN(c2cc(N3CCCCC3)ccn2)[C@H]2CCCN(c3cccc(F)c3)[C@@H]12 [I-950],10 to 100
7,COCCOCCOCC[C@H]1CN(c2cc(N3CCCCC3)ccn2)[C@@H]2CCCN(c3cccc(F)c3)[C@H]12 [I-951],< 10
8,NC(=O)NCc1cccc(N2CCC[C@H]3[C@@H]2CCN3c2cc(N3CCCCC3)ccn2)c1 [I-953],< 10
9,NC(=O)OCc1cccc(N2CCC[C@H]3[C@@H]2CCN3c2cc(N3CCCCC3)ccn2)c1 [I-954],< 10
10,NC(=O)OCc1cccc(N2CCC[C@@H]3[C@H]2CCN3c2cc(N3CCCCC3)ccn2)c1 [I-955],10 to 100
11,NC(=O)N1Cc2ccc(N3CCC[C@H]4[C@@H]3CCN4c3cc(N4CCCCC4)ccn3)cc2C1 [I-956],< 10
12,NC(=O)N1Cc2ccc(N3CCC[C@@H]4[C@H]3CCN4c3cc(N4CCCCC4)ccn3)cc2C1 [I-957],10 to 100
13,O=C1NCCN1Cc1cccc(N2CCC[C@@H]3[C@H]2CCN3c2cc(N3CCCCC3)ccn2)c1 [I-959],10 to 100
14,O=C1NCCN1Cc1cccc(N2CCC[C@H]3[C@@H]2CCN3c2cc(N3CCCCC3)ccn2)c1 [I-960],< 10
15,NS(=O)(=O)CCc1cccc(N2CCC[C@H]3[C@@H]2CCN3c2cc(N3CCCCC3)ccn2)c1 [I-964],< 10
16,Cc1c(F)ccc(F)c1-c1[nH]ncc1C(=O)N[C@@H](c1cccc(Cl)c1)[C@H]1CCOC1 [I-965],100 to 200
17,Cc1c(F)ccc(F)c1-c1[nH]ncc1C(=O)N[C@H](c1cccc(Cl)c1)[C@@H]1CCOC1 [I-967],10 to 100
18,Cc1c(F)ccc(F)c1-c1[nH]ncc1C(=O)N[C@H](c1cccc(Cl)c1)[C@H]1CCOC1 [I-968],10 to 100
19,Cc1cc(Cl)cc(C)c1-c1c(C(=O)N[C@@H](CC(N)=O)c2cccc(Cl)c2)c[nH]c1C(=O)c1ccccc1 [I-969],< 10
20,Nc1cc(N[C@@H]2CCCN(c3cccc(F)c3)C2)cc(C2CCCCC2)c1 [I-970],10 to 100
21,OCCOCCOCCOCCOCCC1CCCCN1c1ccnc(N2CC[C@@H]3[C@H]2CCCN3c2cccc(F)c2)c1 (some centres unmarked) [I-971],< 10

row,SMILES,Kd [µM]
1,Cc1c(F)ccc(F)c1-c1c(C(=O)N[C@@H](CC(N)=O)c2cccc(Cl)c2)csc1C#N [I-972],< 10
2,COCCC(=O)c1c(-c2c(F)ccc(F)c2C)c(C(=O)N[C@@H](CC(N)=O)c2cccc(Cl)c2)cn1C [I-973],< 10
3,CCn1cc(C(=O)N[C@@H](CC(N)=O)c2cccc(Cl)c2)c(-c2c(F)ccc(F)c2C)c1C#N [I-974],< 10
4,Cc1c(F)ccc(F)c1-c1c(C(=O)N[C@@H](CC(N)=O)c2cccc(Cl)c2)cn(C(C)C)c1C#N [I-976],< 10
5,OCCCCCCCCC1CCN(c2ccnc(N3CC[C@@H]4[C@H]3CCCN4c3cccc(F)c3)c2)CC1 [I-977],10 to 100
6,Cc1ccc(CCCOCCOCCOCCOCCOCCN)c(F)c1-c1c(C(=O)N[C@@H](CC(N)=O)c2cccc(Cl)c2)c[nH]c1C#N [I-978],< 10
7,NCCNc1ccc(C2CCCCC2)cc1N[C@@H]1CCCN(c2cccc(F)c2)C1 [I-979],10 to 100
8,OCc1c(CN2CCCCC2)cccc1C1CCCN(c2cccc(F)c2)C1 (centres unmarked) [I-981],10 to 100
9,NCC(=O)NCc1ccc(N2CCCCC2)cc1N[C@@H]1CCCN(c2cccc(F)c2)C1 [I-982],10 to 100
10,O[C@H]1CC[C@@H](Nc2cc(N3CCCCC3)ccn2)C[C@@H]1c1ccccc1 [I-984],10 to 100
11,O[C@@H]1CC[C@@H](Nc2cc(N3CCCCC3)ccn2)C[C@H]1c1ccccc1 [I-985],10 to 100
12,OC[C@@H]1CCN(c2cccc(F)c2)C[C@@H]1Nc1cc(N2CCCCC2)ccn1 [I-988],100 to 200
13,OC[C@@H]1CCN(c2cccc(F)c2)C[C@H]1Nc1cc(N2CCCCC2)ccn1 [I-990],10 to 100
14,NCCNC(=O)c1ccc(N2CCCCC2)cc1N[C@@H]1CCCN(c2cccc(F)c2)C1 [I-991],10 to 100
15,O=C1Nc2cnc(N3CCCCC3)cc2NC12CCCN(c1cccc(F)c1)C2 (centres unmarked) [I-992],10 to 100
16,Fc1cccc(N2CCCC3(CNc4cnc(N5CCCCC5)cc4N3)C2)c1 (centres unmarked) [I-993],10 to 100
17,OC[C@H]1CC[C@H](Nc2cc(N3CCCCC3)ccn2)CN1c1cccc(F)c1 [I-994],10 to 100
18,OC[C@@H]1CC[C@@H](Nc2cc(N3CCCCC3)ccn2)CN1c1cccc(F)c1 [I-995],10 to 100
19,COCCOCC[C@@H]1CN(c2cc(N3CCCCC3)ccn2)[C@@H]2CCCN(c3cccc(F)c3)[C@H]12 [I-996],10 to 100
20,Cc1c(F)ccc(F)c1-c1[nH]ncc1C(=O)N[C@H](c1cccc(Cl)c1)C1CCCS1(=O)=O (some centres unmarked) [I-999],10 to 100
21,Cc1c(F)ccc(F)c1-c1[nH]ncc1C(=O)N[C@@H](c1cccc(Cl)c1)[C@H]1CCCS1(=O)=O [I-1000],< 10

# Same assay, conditions: DCAF1-3 SPR (KD), 25 °C
row,Kd [µM],SMILES
1,< 10,"NC(=O)OCc1cc(F)cc(N2CCC[C@H]3[C@@H]2CCN3c2cc(N3CC4CC(C4)C3)ccn2)c1 [I-1035, 3-((3aS,7aS)-1-(4-(3-azabicyclo[3.1.1]heptan-3-yl)pyridin-2-yl)octahydro-4H-pyrrolo[3,2-b]pyridin-4-yl)-5-fluorobenzyl carbamate]"
